Results as given in patent publication US10548894B2, “Combination therapy” (Array BioPharma Inc., priority 2013, dated 2020).

Tests used:
Assay type in all cases: cell-based
[1] = tested on: six melanoma T1799 mutant BRAF cell lines; test: CellTiter-Glo proliferation assay, panel summary; settings: absence of FGF2, read-out: IC50 values, range over cell lines
Experimental: (§1) All cell lines were purchased from ATTC (SK-MEL-5, SK-MEL-24, UACC-62, COLO 741, COLO-800, WM-266-4, Colo205, LS411N, SW 1417), ECACC (MDST8), DSMZ (CL-34) and NCI (LOX IMVI). […] Cell lines were cultured in 37° C. and 5% CO2 incubator and expanded in T-75 flasks. In all cases cells were thawed from frozen stocks, expanded through passage using 1:3 dilutions, counted and assessed for viability using a ViCell counter (Beckman-Coulter), prior to plating in 96-well or 6-well plates. To split and expand cell lines, cells were dislodged from flasks using 0.25% Trypsin-EDTA (GIBCO, Catalog number 25200). All cell lines were determined to be free of mycoplasma contamination as determined by a PCR detection methodology performed at Idexx Radii (Columbia, Mo., USA) and correctly identified by detection of a panel of SNPs. […]
(§2) For CellTiter-Glo™ assays, cells were dispensed into tissue culture treated 96-well plates (Costar, catalog number 3904) with a final volume of 80 μL of medium and at density of 3000 cells per well. […] Plates were incubated for 72 hrs and the effects of compounds on cell proliferation was determined using the CellTiter-Glo™ Luminescent Cell Viability Assay (CTG, Promega) and a Victor™ X4 plate reader (Perkin Elmer). […] Cells were continuously monitored every two hours for seven days with the xCELLigence real-time impedance based cell analyzer. […]

[2] = tested on: five CRC-derived T1799 mutant BRAF cell lines; test: CellTiter-Glo proliferation assay, panel summary; settings: absence of FGF2, read-out: IC50 values, range over cell lines
Experimental: as §1, §2

SK-MEL-5 = test: xCELLigence real-time impedance growth assay; settings: Formula (I) 100 nM, Compound H 1 uM
Experimental: (§3) Shown is the growth in real time of the (Top A) COLO 741 and (Bottom B) SK-MEL-5 cell lines as measured using the xCELLigence impedance-based cell analyzer as discussed in Example 5. Where indicated FGF2 and Compound H were supplemented to the media at concentrations of 100 ng/ml, and 1 uM, respectively. The Compound of Formula (I) was used at 500 nM in (A) and 100 nM (B).
(§4) For CellTiter-Glo™ assays, cells were dispensed into tissue culture treated 96-well plates (Costar, catalog number 3904) with a final volume of 80 μL of medium and at density of 3000 cells per well. 12 to 24 hrs after plating, 20 μL of each compound dilution series were transferred to plates containing the cells, resulting in compound concentration ranges of 2700 nM to 3.7 nM by 3-fold dilutions and a final DMSO concentration of 0.16%. The total volume in each well was […]. Plates were incubated for 72 hrs and the effects of compounds on cell proliferation was determined using the CellTiter-Glo™ Luminescent Cell Viability Assay (CTG, Promega) and a Victor™ X4 plate reader (Perkin Elmer). For real-time growth assays cells were seeded into xCELLigence E-plates (Roche catalogue number 05232368001) at a density of 4000 cells per well in a total of 90 μl of media and 24 hrs after plating, 11 μl of media with or without compound was added to the wells. 2-4 replicate wells were plated for all cell lines and treatment groups with the exception of LGX818+FGF2 treated COLO 741 cells (N=1). Where indicated final concentrations of compounds and growth factor were 1 uM for Compound H, 100 ng/ml for FGF2, and either 100 nM (SK-MEL-5) or 500 nM (COLO 741) for the Compound of Formula (I). Cells were continuously monitored every two hours for seven days with the xCELLigence real-time impedance based cell analyzer. Impedance was measured using the electrodes on the E-plates, with increasing surface area coverage of cells creating greater electrode impedance. […] In all cases cell index values were normalized to a timepoint immediately following the addition of compound.
(§5) To determine whether rescue of BRAFV600E melanoma cell lines by FGF2 was dependent on FGFR signaling, we examined whether the selective FGFR inhibitor Compound H could prevent FGF2-mediated rescue. Two cell lines which were rescued to varying degrees by FGF2 (COLO 741, and SK-MEL-5, Table 8-1) were cultured in media containing the Compound of Formula (I) and FGF2 either in the presence or absence of Compound H and growth measured in real time.

COLO 741 = test: xCELLigence real-time impedance growth assay; settings: Formula (I) 500 nM, Compound H 1 uM
Experimental: as §3, §4, §5

**Q.** How did the IC50 [1] turn out when `COC(=O)N[C@@H](C)CNc1nccc(-c2cn(C(C)C)nc2-c2cc(Cl)cc(NS(C)(=O)=O)c2F)n1` [Compound of Formula (I)] was run?
**A.** 3 to 470 nM

**Q.** What about the IC50 [2] of the same compound?
**A.** 4 to 185 nM

**Q.** What about the “growth in real time (cell index)” value (SK-MEL-5; SK-MEL-5, FGF2 100 ng/ml) of the same compound?
**A.** growth suppression was abrogated

**Q.** And the “growth in real time (cell index)” value (SK-MEL-5; SK-MEL-5, absence of FGF2)?
**A.** suppressed the growth

**Q.** And the “growth in real time (cell index)” value (COLO 741; COLO 741, FGF2 100 ng/ml)?
**A.** growth suppression was abrogated

**Q.** What about the “growth in real time (cell index)” value (COLO 741; COLO 741, absence of FGF2) of the same compound?
**A.** suppressed the growth
